Measured values reported in US10988500B2, “Lipid A mimics, methods of preparation, and uses thereof” (Immunovaccine Technologies Inc., priority 2015, dated 2021).

Assays:
[1] = tested on: bone marrow dendritic cells of C3H/HeOuJ (wild-type) mice; assay: Dendritic cell activation (CD40/CD86, flow cytometry), wild-type cells (Example 13); assay type: cell-based, mouse; settings: FIG. 7; for expression of CD40 and CD86 on CD11c positive dendritic cells: wild-type dendritic cells, 20 micrograms/millilitre, overnight stimulation; for induction of CD40 and CD86 relative to LPS: wild-type mice dendritic cells
Protocol: (§1) Pathogen-free, female C3H/HeOuJ (wild-type) mice and C3H/HeJ (TLR4 mutant) mice, 6-8 weeks of age were purchased from the Jackson Laboratory (Bar Harbor, Me., USA) and were housed according to institutional guidelines with water and food ad libitum under filter controlled air circulation.
(§2) Dendritic cells were prepared from bone marrow of either wild-type or TLR4 mutant mice as follows. Femurs and tibia bones were isolated from naïve mice and flushed under sterile conditions with phosphate buffered saline. Red blood cells were lysed using ammonium chloride potassium lysing solution. Cells were counted and resuspended in complete RMPI 1640 media containing 10% fetal bovine serum (Hyclone, Nepean, ON, Canada), 1% penicillin-streptomycin (Gibco, Burlington, ON, Canada), 2 millimolar L-glutamine (Gibco), 1% HEPES buffer (Gibco) and […] beta-mercaptoethanol (Sigma-Aldrich, Oakville, ON, Canada) at a concentration of 1.2×10E6 cells/millitre. Cells were cultured in a 6-well plate supplemented with 10 nanograms/milliliter of GM-CSF (Peprotech, Rocky Hill, N.J., USA) for 8 days, additional media was added on day 3 and day 6. On day 7, cells were stimulated with JL-265 or JL-266 prepared in DMSO, or DMSO vehicle control, or poly I:C (Thermo-Fisher), or lipopolysaccharide (LPS; Sigma-Aldrich). Non-adherent cells were collected on day 8 and stained with fluorochrome-conjugated antibodies specific for CD11c (clone), CD40 (clone) or CD86 (Clone). Cells were analyzed by flow cytometry using a FACSCalibur (BD Bioscience, Mississauga ON, Canada) and Win List 3D 7.0 software (Verity Software House, Topsham, Me., USA).
(§3) Results were analysed by gating first on CD11c positive cells (dendritic cell marker), then determining the percent that were double positive for CD40 or CD86.

[2] = tested on: antigen-specific IFN-gamma response to R9F peptide (splenocytes); assay: IFN-gamma ELISPOT immunogenicity of DPX vaccine (Example 14); assay type: in vivo, mouse (C57BL6); settings: R9F+F21E in DPX with 5 micrograms lipid A mimic, FIG. 8; for enhancement of antigen-specific IFN-gamma response to R9F: s.c., spleens eight days after vaccination
Description: (§4) Pathogen-free, female C57BL6 mice, 6-8 weeks of age were purchased from Charles River Laboratories (St. Constant, Quebec, Canada) and were housed according to institutional guidelines with water and food ad libitum under filter controlled air circulation.
The peptides used in this example were synthesized by Polypeptide Group (San Diego, Calif., USA). Vaccines contained the MHC class I epitope HPV16E7 (H-2Db) 49-67 (RAHYNIVTF, R9F; […]; SEQ ID NO: 23).
(§5) To formulate vaccines described herein, a 10:1 mixture of dioleoyl phosphatidylcholine (DOPC) (120 milligrams/mL) and cholesterol (12 milligrams/mL) was solubilized in tert-butanol. R9F and F21E peptide antigens were first solubilized in dimethyl sulfoxide and then added to the DOPC/cholesterol/tert-butanol mixture. The lipid A mimics JL-265 and JL-266 were first solubilized in dimethyl sulfoxide. Where indicated, JL-265 or JL-266 were also added to the FP/DOPC/tert-butanol mixture. A dry homogeneous mixture of antigen with or without lipid A mimic was prepared by removing the solvent and water present in the formulation by lyophilization. The dry mixture was then suspended in Incomplete Freund's adjuvant, a mineral oil-based model hydrophobic carrier. This formulation is henceforth referred to as DepoVax (DPX).
To test the immunogenicity of the vaccine, naïve mice (n=5) were immunized subcutaneously with 50 microlitres of DPX vaccine containing R9F and F21E with no lipid A mimic (Group 1), 5 micrograms of JL-265 (Group 2) or 5 micrograms of JL-266 (Group 3). Mice in Group 4 (n=2) were not immunized and served as the naïve control. Eight days after vaccination, mice in all groups were terminated and spleens collected. A single cell suspension of splenocytes was prepared at a concentration of 5×10E6 cells per milliliter and 100 microlitres added to wells of a 96-well ELISPOT plate pre-coated with anti-IFN-gamma (BD Bioscience). In duplicate, 100 microlitres of media containing 20 micrograms per milliliter of an irrelevant peptide antigen or R9F was added to the splenocytes, or media containing no peptide as a background control. The plate was incubated overnight at 37° C. and developed next day following manufacturers instructions using AEC chromogen (Sigma-Aldrich). Spots were quantified using ELISPOT plate reader (C.T.L., Shaker Heights).

[3] = tested on: C3 tumors (HPV16-expressing C3 cells); assay: C3 tumor challenge, aqueous liposome vaccine (Example 10); assay type: in vivo, mouse (C57BL6); settings: for Tumor Volume (mm^3): Table 1, Example 10, FP peptide 10 micrograms + lipid A mimic 10 micrograms in liposomes, water carrier, s.c. on day 5 after C3 implantation; for tumor volumes compared to control groups: at 28 days, liposome vaccine, FIG. 4
Description: as §4
(§6) The C3 tumor cell line used in this study is a well-described mouse model for pre-clinical cervical cancer research. HPV16-expressing C3 cells are derived from B6 mouse embryo cells transformed with the complete HPV16 genome under its own promoter and an activated-ras oncogene. The C3 cell line develops tumors when injected subcutaneously and has been used in cancer challenge studies to examine the efficacy of vaccine administered before or after C3 tumor cell implantation. The C3 cell line was maintained in Iscove Modified Dulbecco's Medium (IMDM; Sigma, St. Louis, Mo.) supplemented with 10% heat-inactivated fetal calf serum (Hyclone), 2 mM 1-glutamine, […] 2-mercaptoethanol, penicillin and streptomycin. Cells were incubated at 37° C./5% CO2.
(§7) The HPV16E7 (H-2Db) peptide 49-67, RAHYNIVTF (SEQ ID NO: 1), containing a CTL epitope was fused to PADRE containing a CD4+ T helper epitope by Polypeptide Group (San Diego, Calif., USA). This peptide is hereafter designated as FP.
To formulate the vaccines herein, 160 micrograms of FP was mixed with a DOPC/cholesterol mixture (10:1, w/w, Lipoid GmbH, Germany) dissolved in tert-butanol. When lipid A mimics were included, 160 micrograms of JL-265 or JL-266 were added to the FP/DOPC/chol mixture. The mixture was lyophilized and then reconstituted in reconstituted in […] of sterile water to formulate liposomes containing antigen with or without lipid A mimic. Each vaccine dose was 50 microlitres and contained 10 micrograms of FP peptide with or without 10 micrograms of lipid A mimic (JL-265 or JL-266).
(§8) To test the efficacy of these liposome-based vaccine formulations, groups of mice (7 mice per group) were implanted subcutaneously in the left flank with 5×10E5 C3 cells suspended in 100 microlitres of HBSS media. Five days later, mice were vaccinated subcutaneously in the right flank with 50 microlitres of vaccine. Mice in Group 1 were vaccinated with FP peptide (10 micrograms) in liposomes containing no lipid A mimic. Mice in Group 2 were vaccinated with FP peptide (10 micrograms) in liposomes containing JL-265 (10 micrograms). Mice in Group 3 were vaccinated with FP peptide (10 micrograms) in liposomes containing JL-266 (10 micrograms). Mice in Group 4 served as a tumor growth control and were vaccinated with saline containing no antigen or lipid A mimic.

[4] = tested on: bone marrow dendritic cells of C3H/HeJ (TLR4 mutant) mice; assay: Dendritic cell activation (CD40/CD86, flow cytometry), TLR4 mutant cells (Example 13); assay type: cell-based, mouse; settings: FIG. 7; for expression of CD40 and CD86 on CD11c positive dendritic cells, versus wild-type: TLR4 mutant dendritic cells, 20 micrograms/millilitre, overnight stimulation; for induction of CD40 and CD86 relative to LPS: TLR mutant mice dendritic cells
Protocol: as §1, §2, §3

[5] = tested on: C3 tumors (HPV16-expressing C3 cells); assay: C3 tumor challenge, DepoVax (DPX) vaccine (Example 12); assay type: in vivo, mouse (C57BL6); settings: for tumor volume fold smaller than control DepoVax composition (Group 1): Table 2, DepoVax; for Tumor Volume (mm^3): Table 2, Example 12, FP peptide 10 micrograms + lipid A mimic 10 micrograms in DepoVax, s.c. on day 5 after C3 implantation; for tumor volumes compared to control groups: at 40 days, DPX vaccine, FIG. 6
Description: as §4, §6, §7
as §5, with “in tert-butanol. FP antigen was first solubilized” for “in tert-butanol. R9F and F21E peptide antigens were first solubilized”, “in dimethyl sulfoxide, although a water suspension of FP can also be used, and then” for “in dimethyl sulfoxide and then”
as §8, with “oil-based” for “liposome-based”, “(8” for “(7”, “DPX” for “liposomes”

[6] = tested on: C3 tumors (HPV16-expressing C3 cells); assay: C3 tumor challenge, oil-based (IFA) vaccine (Example 11); assay type: in vivo, mouse (C57BL6); settings: at 28 days; FP peptide 10 micrograms in oil (IFA) with 10 micrograms lipid A mimic, FIG. 5
Description: as §4, §6, §7
To formulate the vaccine herein, FP peptide was solubilized in dimethyl sulfoxide and mixed with Incomplete Freund's adjuvant (IFA). […]

Row | Compound | expression of CD40 and CD86 on CD11c positive dendritic cells [1] | induction of CD40 and CD86 relative to LPS [1] | enhancement of antigen-specific IFN-gamma response to R9F ([2]; versus no lipid A mimic) | generation of an immune response (IFN-gamma ELISPOT) [2] | Tumor Volume (mm^3) [3] | tumor volumes compared to control groups [3] | expression of CD40 and CD86 on CD11c positive dendritic cells, versus wild-type [4] | induction of CD40 and CD86 relative to LPS [4] | tumor volume fold smaller than control DepoVax composition (Group 1) [5] | Tumor Volume (mm^3) [5] | tumor volumes compared to control groups [5] | tumor volumes compared to control groups [6] | expression of CD40 and CD86 on CD11c positive dendritic cells, versus wild-type ([4]; listed as polyI:C) | increase in the immune response (IFN-gamma ELISPOT) ([2]; versus no lipid A mimic)
1 | CCCCCCCCCCCCCC(=O)O[C@H](CCCCCCCCCCC)CC(=O)NC1C(OC(=O)C[C@@H](CCCCCCCCCCC)OC(=O)CCCCCCCCCCCCC)[C@H](OP(=O)(O)O)C(CO)O[C@H]1OCCN(C(=O)C[C@@H](CCCCCCCCCCC)OC(=O)CCCCCCCCCCCCC)c1cccc(O)c1 (stereo in doubt) [JL-265] | strong increased expression | the same as LPS | did not enhance | capable of generating an immune response | 319 ± 122 mm^3 | significantly smaller tumor volumes | significantly reduced | slightly lower induction | about 3.1 fold | 445 ± 395 mm^3 | significantly smaller tumor volumes | significantly smaller tumor volumes | – | –
2 | poly I:C [reference compound] | increase in expression | – | – | – | – | – | comparably to wild-type dendritic cells | – | – | – | – | – | comparable stimulation | –
3 | lipopolysaccharide [LPS, reference compound] | increase in expression | – | – | – | – | – | significantly reduced | – | – | – | – | – | – | –
4 | CCCCCCCCCCCCCC(=O)O[C@H](CCCCCCCCCCC)CC(=O)NC1C(OC(=O)C[C@@H](CCCCCCCCCCC)OC(=O)CCCCCCCCCCCCC)[C@H](OP(=O)(O)O)C(CO)O[C@H]1OCCN(C(=O)C[C@@H](CCCCCCCCCCC)OC(=O)CCCCCCCCCCCCC)c1cccc(OP(=O)(O)O)c1 (stereo in doubt) [JL-266] | strong increased expression | the same as LPS | did | – | 380 ± 86 mm^3 | significantly smaller tumor volumes | significantly reduced | slightly lower induction | ~6.3 fold | 219 ± 139 mm^3 | significantly smaller tumor volumes | significantly smaller tumor volumes | – | ~2 fold
